In article PMC12469269, “Investigating SMR Peptide Interactions with Breast Cancer-Associated Proteins” (International Journal of Molecular Sciences, 2025):

System: Jurkat T cells
Assay: EV secretion, Nef-GFP (Figure 6A), Jurkat T cells
Format: cell-based
Conditions: 349.6 nM SMRwt-CPP or 357.27 nM VIMwt-CPP, 24 h
Method: To investigate whether SMRwt and VIMwt peptides can suppress extracellular vesicle (EV) secretion, Jurkat T cells were co-transfected with wild-type Nef-GFP and treated with either SMRwt-CPP (349.6 nM) or VIMwt-CPP (357.27 nM) peptides. GFP fluorescence in the culture media was used as a proxy for Nef-associated EV release after 24 h of incubation.
Figure 6 SMRwt and VIMwt peptides decrease extracellular vesicle secretion in Jurkat T cells and breast cancer cells. (A) Jurkat T cells were co-transfected with 1 µg of wild-type Nef-GFP plasmid and treated with either 349.6 nM SMRwt-CPP or 357.27 nM VIMwt-CPP peptides. After 24 h at 37 °C, culture media were collected and assayed for extracellular vesicle (EV) secretion using GFP fluorescence as a proxy. (B,C) MDA-MB-231 and MCF-7 breast cancer cells were treated with either 349.6 nM SMRwt-CPP or 357.27 nM VIMwt-CPP peptides for 24 h at 37 °C. Cells were then labeled with 5 µM N-Rh-PE at 4 °C for 1 h, washed, and incubated in fresh media for an additional 24 h. Supernatants were assayed for EV secretion using N-Rh-PE fluorescence. Bar graphs show relative EV levels. Data represent mean ± SD from three independent experiments. Statistical comparisons were performed using appropriate tests; p-values are indicated. […]

How did the “p, peptide vs Nef-GFP alone, EV secretion” value turn out when “H-LYEEEMREGRKKRRQRRRPPQ - OH [VIMwt-CPP]” was run?
The value was less than 0.0006.
